We go through one compound from ChEMBL document CHEMBL5579878, “Allosteric Activation of Protein Phosphatase 5 with Small Molecules” (J Med Chem, 2024).

Molecules are shown by their SMILES. Residue numbers refer to the chain shown, from its start. Active and inactive are the calls of the source. No cut-off for these calls is given here.

Series [1] addresses Dual specificity protein phosphatase 3 (Homo sapiens) (UniProt P51452). As to the kind of experiment: Inhibition of DUSP3 (unknown origin) using DiFMUP as substrate at 0.01 to 1000 uM. Conditions: dose 0.01-1000 µM.
The test system of series [2] is HCT-116. In words: Antiproliferative activity against human HCT-116 cells assessed as inhibition of cell proliferation at 1 to 100 uM incubated for 72 hrs by CCK8 assay. It counts as functional, cell-based. Conditions: dose 1-100 µM. A general note: Formazan colour is commonly taken as a measure of viable cells.
Series [3] deals with T1, Serine/threonine-protein phosphatase 5 (Homo sapiens) (UniProt P53041).
T1 sequence (whole entry): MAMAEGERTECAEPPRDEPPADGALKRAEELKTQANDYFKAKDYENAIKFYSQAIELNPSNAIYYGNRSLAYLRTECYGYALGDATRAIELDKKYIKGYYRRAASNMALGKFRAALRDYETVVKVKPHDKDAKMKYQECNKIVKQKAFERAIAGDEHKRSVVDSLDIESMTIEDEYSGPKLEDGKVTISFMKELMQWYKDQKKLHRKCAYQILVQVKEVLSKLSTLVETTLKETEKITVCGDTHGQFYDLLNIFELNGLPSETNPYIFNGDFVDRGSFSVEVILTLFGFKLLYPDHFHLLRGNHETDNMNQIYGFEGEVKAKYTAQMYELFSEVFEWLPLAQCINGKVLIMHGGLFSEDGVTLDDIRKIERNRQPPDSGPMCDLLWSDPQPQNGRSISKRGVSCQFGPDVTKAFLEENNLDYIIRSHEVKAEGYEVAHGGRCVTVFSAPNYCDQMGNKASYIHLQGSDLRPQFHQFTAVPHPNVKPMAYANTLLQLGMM
In words: Activation of PP5 in human HCT-116 cells assessed as decrease in intracellular S13 residue phosphorylated CDC37 level at 100 uM by Western blot analysis. The format is cell-based. Conditions: filed as activator, time <= 24.0 hrs, TDE = time-dependent effect. In general terms: Immunoblotting shows a protein as a band on a membrane.

Series [4] deals with HCT-116. As to the kind of experiment: Antitumor activity against human HCT-116 cells xenografted in BALB/c nude mouse assessed as decrease in AT13387-induced HSP70 protein expression in tumor at 30 to 60 mg/kg, ip administered every other day for 14 days by Western blot analysis. The format is functional, organism-based. Conditions: dose 30-60 mg/kg, time 14.0 day. A general note: In xenograft studies the graft and the host belong to different species.

For series [5], the target named is T2, Tyrosine-protein phosphatase non-receptor type 11 (Homo sapiens) (UniProt Q06124).
T2 sequence (whole entry): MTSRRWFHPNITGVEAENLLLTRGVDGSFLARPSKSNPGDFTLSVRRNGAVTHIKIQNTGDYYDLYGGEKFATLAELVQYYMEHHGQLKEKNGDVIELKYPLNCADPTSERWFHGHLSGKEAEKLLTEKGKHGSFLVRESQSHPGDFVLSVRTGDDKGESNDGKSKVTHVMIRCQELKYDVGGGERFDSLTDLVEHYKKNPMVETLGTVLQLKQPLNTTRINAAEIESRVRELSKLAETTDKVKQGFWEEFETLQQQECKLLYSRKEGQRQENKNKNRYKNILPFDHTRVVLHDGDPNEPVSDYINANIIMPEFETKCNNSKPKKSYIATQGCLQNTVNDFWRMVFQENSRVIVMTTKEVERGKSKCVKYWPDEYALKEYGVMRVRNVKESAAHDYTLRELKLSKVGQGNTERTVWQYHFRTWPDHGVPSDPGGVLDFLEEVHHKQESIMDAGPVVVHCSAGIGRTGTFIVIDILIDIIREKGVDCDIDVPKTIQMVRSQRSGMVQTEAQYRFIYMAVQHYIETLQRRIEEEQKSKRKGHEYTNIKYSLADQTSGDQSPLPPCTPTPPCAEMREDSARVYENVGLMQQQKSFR
In words: Inhibition of SHP2 (unknown origin) using DiFMUP as substrate at 0.01 to 1000 uM. Conditions: dose 0.01-1000 µM.

The subject of series [6] is T3, Serine/threonine-protein phosphatase 5 (Homo sapiens), P53041 [E428A].
T3 sequence (whole entry): T1 sequence (whole entry) with E428A
In words: Binding affinity to PP5 E428A mutant (unknown origin) by ITC analysis.

The test system of series [7] is HCT-116. As to the kind of experiment: Enhancement of HSP90 inhibitor AT13387-induced antiproliferative activity against human HCT-116 cells assessed as HSP90 inhibitor AT13387 IC50 at 50 uM incubated for 72 hrs by CCK8 assay (reference value: 78.49 nM). The format is functional, cell-based. Conditions: HCT-116, 72 h.
Series [8] has as its target T1, Serine/threonine-protein phosphatase 5 (Homo sapiens). As to the kind of experiment: Binding affinity to human PP5 extracted from Escherichia coli BL21 using CDC37 as substrate assessed as increase in dephosphorylation of p-CDC37 at S13 residue incubated for 1 hrs by Western blot analysis. Conditions: filed as activator, dose 5-50 µM.
Series [9] relates to HCT-116. As to the kind of experiment: Antitumor activity against human HCT-116 cells xenografted in BALB/c nude mouse at 60 mg/kg, ip administered every other day for 14 days. It counts as functional, organism-based. Conditions: time 14.0 day.
A short description of series [10]: Toxicity in BALB/c nude mouse xenografted with human HCT-116 cells assessed as body weight loss at 60 mg/kg, ip administered every other day for 14 days. The format is organism-based. Particulars: in vivo, 336 h, time 14 day.
In series [11] the target is T4, Tyrosine-protein phosphatase non-receptor type 2 (Homo sapiens) (UniProt P17706).
T4 sequence (whole entry): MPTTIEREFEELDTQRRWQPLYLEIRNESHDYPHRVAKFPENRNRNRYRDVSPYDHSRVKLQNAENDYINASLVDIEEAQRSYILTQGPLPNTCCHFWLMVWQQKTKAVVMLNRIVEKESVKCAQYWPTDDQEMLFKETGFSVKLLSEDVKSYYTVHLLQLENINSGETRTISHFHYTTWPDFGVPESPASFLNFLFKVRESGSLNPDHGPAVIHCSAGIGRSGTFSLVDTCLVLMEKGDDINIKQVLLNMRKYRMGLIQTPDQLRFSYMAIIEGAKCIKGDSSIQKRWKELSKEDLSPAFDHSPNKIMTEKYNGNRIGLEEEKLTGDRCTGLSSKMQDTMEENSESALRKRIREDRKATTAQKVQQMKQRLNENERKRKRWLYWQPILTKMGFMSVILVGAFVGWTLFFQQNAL
In words: Inhibition of PTPN2 (unknown origin) using DiFMUP as substrate at 0.01 to 1000 uM. Conditions: dose 0.01-1000 µM.

Chain of Dual specificity protein phosphatase 3 (Homo sapiens) (P51452 whole entry, looked up): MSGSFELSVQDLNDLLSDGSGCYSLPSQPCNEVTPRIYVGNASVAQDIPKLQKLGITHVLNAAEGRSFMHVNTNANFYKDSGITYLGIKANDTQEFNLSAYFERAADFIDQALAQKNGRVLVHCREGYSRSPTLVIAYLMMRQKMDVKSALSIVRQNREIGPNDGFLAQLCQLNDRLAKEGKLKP

One may read the IC50 as the concentration at which inhibition is half-maximal. As for `N=c1oc2cc(F)cc(F)c2cc1C(N)=S`, the inhibition entry in series [1], in [5] and in series [11] was “inactive” throughout. In addition, the result in [2], in series [6] and in [9] was inactive. Besides, the Activity entry in series [3] was “Tde”; in series [8] it was “Dose-Dependent Effect”; in series [10], “Non-Toxic”. Further, the result in series [4] was Active. For the same compound, the IC50 in [7] was 40.8 nM.
